Measurements taken from patent US7833722B2, “Ligands for G protein-coupled receptor protein and use thereof” (Takeda Pharmaceutical Company Limited, priority 2004, dated 2010).

Biological target: GPR17-GFP fusion protein (UniProt P42212+Q13304, F64L/I167T/S65C)
Assay: Movement of GPR17-GFP fusion protein expressed in CHO cells into cells (confocal microscope)
Format: cell-based, human
Conditions: 100 μM, 45 minutes, 37° C.

NCC(=O)CCC(=O)O [ALA, 5-aminolevulinic acid]
localization of GPR17-GFP fusion protein (fluorescent images of GFP): moved in part to the cytoplasm
